Measurements reported in patent publication US10052297B2, “L-serine to be used as a drug for preventing and/or treating an inflammatory response of the skin” (PIERRE FABRE DERMO-COSMETIQUE, priority 2009, dated 2018).
Marks after values point to notes of the source that are not given here. One block for each molecule: values may come before it.

What was measured:
PAR2 = molecular target: T1, PAR2 (Homo sapiens, UniProt P55085); test: Inhibition of trypsin-induced calcium flow (PAR2 activation) in HaCaT keratinocytes, Fluo-4/AM fluorescence; assay type: cell-based; settings: HaCaT cells, 10 nM trypsin stimulation; for inhibition at 3 µM / inhibition at 10 µM / inhibition at 30 µM / inhibition at 100 µM: 30 min incubation, read-out: Anti-PAR2 activity (percentage of inhibition); for Inhibition of PAR2 activation (result in words): 3-100 μM
T1 construct: HaCaT cell line keratinocyte models were used; endogenous in cells; host or cells: HaCaT keratinocytes
T1 sequence (P55085 26-397): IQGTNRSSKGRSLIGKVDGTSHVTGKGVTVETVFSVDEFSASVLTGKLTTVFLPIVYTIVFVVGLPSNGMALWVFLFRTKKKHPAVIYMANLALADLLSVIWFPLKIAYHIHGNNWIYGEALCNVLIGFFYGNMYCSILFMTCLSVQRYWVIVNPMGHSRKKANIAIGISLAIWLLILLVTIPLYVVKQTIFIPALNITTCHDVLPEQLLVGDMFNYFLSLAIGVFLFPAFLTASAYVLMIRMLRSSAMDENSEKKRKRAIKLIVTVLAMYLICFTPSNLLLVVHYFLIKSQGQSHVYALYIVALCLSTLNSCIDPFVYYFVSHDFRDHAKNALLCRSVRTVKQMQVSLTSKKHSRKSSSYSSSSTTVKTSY
Procedure: HaCaT cell line keratinocyte models were used. L-serine and L-asparagine were purchased from EVONIK, L-arginine was purchased from AMINO and L-valine was purchased from AJINOMOTO.
A fluorescent probe (Fluo-4/AM at a concentration of 2 μM) is incorporated for 30 minutes in cells inoculated in 96-well plates and the active agent to be tested is incubated for 30 minutes. Only the deesterified form of the probe bound to calcium ions is excitable under 485 nm fluorescence and emits at 535 nm. The incubation buffer used is HBSS buffer supplemented with HEPES (20 mM) and with water-soluble probenecid (2.5 mM).
The cells were stimulated with 10 nM trypsin.
The reference molecule used is a STI molecule (soybean trypsin inhibitor) at a concentration of 1 μM.
L-serine and L-asparagine, solubilized at 50 mg/ml in distilled water (475.8 mM for L-serine and 378.4 mM for L-asparagine) were evaluated at concentrations of 3 μM, 10 μM, 30 μM and 100 μM.
L-arginine was solubilized at 100 mM in distilled water.
L-valine was solubilized at 200 mM in distilled water.
Calcium flow, which represents PAR2 activation, is measured by fluorescence, well by well in real time according to kinetics before and after the injection of trypsin. The percentage of inhibition of PAR2 activation corresponds to the percentage of inhibition of calcium flow.

IL-8 secretion = test: Inhibition of IL-8 secretion stimulated by trypsin in HaCaT keratinocytes (sandwich ELISA); assay type: cell-based; settings: Homo sapiens, 10 nM trypsin 24 h, n=2 experiments
Procedure: The test performed permitted to evaluate the anti-inflammatory activity of L-serine in terms of IL-8 secretion, stimulated by trypsin, on human keratinocytes from a cell line (HaCaT). Principle of the IL-8 Assay: Sandwich ELISA for Quantification of IL-8 Secreted in Culture Supernatants. IL-8 is captured by a monoclonal antibody bound to microplate wells. A second anti-IL-8 antibody is added. This antibody is biotinylated, which enabled the binding of streptavidin coupled with peroxidase activity. Adding the peroxidase substrate makes it possible to quantify the IL-8 concentration in each well by measuring absorbance at 450 nm. The HaCaT human keratinocyte cell line was used. A 96-well microplate for cell culture and a plate reader with injectors, Mithras LB940TM (Berthold Technologies®), were used. 10 nM trypsin was used as stimulation agent. Reagents from the Human CXCL8/IL8 DuoSet R&D System kit (ref. DY208(E)) were used. L-serine, solubilized at 475.8 mM in distilled water, was evaluated at concentrations of 3 μM, 10 μM, 30 μM, 100 μM, 300 μM and 1 mM. L-serine is incubated for 1 hour at 37° C. (HBSS buffer). The stimulation agent (trypsin […]) is then added and incubated for 24 hours at 37° C. The culture supernatants are recovered, centrifuged at +4° C. and then stored at -20° C. The IL-8 concentrations of the samples are calculated from a standard curve of the following equation: OD=(Bmax*[IL-8])/(Kd+[IL-8]) Next, the percentages of inhibition of IL-8 secretion are calculated according to the following formula: […]

- inhibition at 3 µM (PAR2): 3%
- inhibition at 10 µM (PAR2): 13%
- inhibition at 30 µM (PAR2): 20%
- inhibition at 100 µM (PAR2): 33%
Molecule: NC(CO)C(=O)O [L-serine, 2-amino-3-hydroxypropanoic acid]
- Inhibition of PAR2 activation (result in words) (PAR2): inhibit PAR2 activation in a dose-dependent manner
- inhibition at 10 µM (IL-8 secretion; 10 μM): 47%
- inhibition at 30 µM (IL-8 secretion; 30 μM): 50%
- inhibition at 100 µM (IL-8 secretion; 100 μM): 66%
- inhibition at 1000 µM (IL-8 secretion; 1 mM): 74%

- inhibition at 3 µM (PAR2): 6%
- inhibition at 10 µM (PAR2): 26%
- inhibition at 30 µM (PAR2): 20%
- inhibition at 100 µM (PAR2): 34%
- Inhibition of PAR2 activation (result in words) (PAR2): inhibit PAR2 activation
Molecule: CC(C)[C@H](N)C(=O)O [L-valine]

- Anti-PAR2 activity (percentage of inhibition) (PAR2; reference at 1 μM): 106-109%***
B1: STI: reference molecule, STI molecule (soybean trypsin inhibitor) at a concentration of 1 μM (protein, UniProt P01070 25-205, looked up)
Trypsin inhibitor A: DFVLDNEGNPLENGGTYYILSDITAFGGIRAAPTGNERCPLTVVQSRNELDKGIGTIISSPYRIRFIAEGHPLSLKFDSFAVIMLCVGIPTEWSVVEDLPEGPAVKIGENKDAMDGWFRLERVSDDEFNNYKLVFCPQQAEDDKCGDIGISIDHDDGTRRLVVSKNKPLVVQFQKLDKESL

The remaining lines, values behind:

Molecule: N=C(N)NCCC[C@H](N)C(=O)O [L-arginine, reference compound]
- inhibition at 3 µM (PAR2): -17%
- inhibition at 10 µM (PAR2): 12%
- inhibition at 30 µM (PAR2): -11%
- inhibition at 100 µM (PAR2): 1%
- Inhibition of PAR2 activation (result in words) (PAR2): does not significantly inhibit PAR2 activation

Molecule: NC(=O)CC(N)C(=O)O [L-asparagine, asparagine-amino-succinic acid]
- inhibition at 3 µM (PAR2): 23%
- inhibition at 10 µM (PAR2): 23%
- inhibition at 30 µM (PAR2): 22%
- inhibition at 100 µM (PAR2): 31%
- Inhibition of PAR2 activation (result in words) (PAR2): inhibit PAR2 activation, but not in a dose-dependent manner
